Here are results for 1 compound from US20240376087A1, “PYRAZOLE AMIDE BASED COMPOUNDS AND USES AGAINST BREAST CANCER THEREOF” (COUNCIL OF SCIENTIFIC AND INDUSTRIAL RESEARCH AN INDIAN …, priority 2021, published 2024).

The subject of data set [1] is normal human lung fibroblast cells (WI 30). Description: Toxicity in normal fibroblast cells (phase contrast images). In kind it is cell-based. Conditions: normal fibroblast cells (WI30), FIG. 3. The protocol: (§1) The cells used for the study, human breast adenocarcinoma (MDA-MB-231) and normal human lung fibroblast cells ([…]) were procured from NCCS, Pune, India, and ATCC, VA, USA, respectively. Cells were maintained in standard culture conditions in DMEM supplemented with 10% FBS and 100 units/ml penicillin/streptomycin under 5% CO2 at 37° C. in a humidified incubator. After 2-3 passages, the cells were seeded on cell culture dishes and were used for different experiments.
Morphological analysis of the cells treated with NIIST-AC-1 at different concentrations were monitored using phase contrast microscope Nikon EclipseTS100 (Nikon Instruments Inc., Melville, NY, USA, Magnification 20×) and SEM (Zeiss EVO 18 Special Edition) at ×2k and ×5k magnification.

The next data set deals with caspase-9. Description: Assay of caspase 9 (fluorometric, cell lysates). In kind it is cell-based, human. Conditions: MDA MB 231 cell lysates, LEHD-AFC. How it is done: The activities of the initiator caspase-9 and downstream executioner caspase-3 were measured using Fluorometric Assay Kit. The caspase activity in the cell lysates of control and treated cells were measured by using the fluorescent substrate DEVD-AFC (for caspase-3 activity) and LEHD-AFC (for caspase-9 activity). Samples were read at 400-nm excitation filter and 505-nm emission filter in a fluorescent microplate reader (BioTek Synergy HT) using Gen5™ ver 1.05.11 software, and the results were expressed as relative units in terms of fluorescence.

The next data set has as its system MMP-9. The experiment in a line: Gelatin zymography for MMP activity. Format: cell-based, human. Conditions: gelatin zymography of spent medium. The protocol:
The activity of MMPs in the spent medium from the cell culture was allowed to react with the substrate gelatin impregnated in the SDS-PAGE gel. After electrophoresis, the gel was washed with Triton solution and incubated with activation buffer 50 mM Tris containing 0.2 M NaCl and 5 mM CaCl2) at 37° C. for 18-20 h for reaction to occur. The gel was stained with Coomassie Brilliant Blue solution and after destaining, gelatin cleaved zones by MMPs were observed as white clear zones which were imaged using ChemiDoc™ MP System with IMAGE LAB™ Software (Bio-Rad).

For data set [2], the system named is proteins in the extrinsic and intrinsic pathway of apoptosis. The experiment in a line: Protein array for expression of apoptotic proteins. In kind it is cell-based, human. Conditions: MDA MB 231 lysates. How it is done: The expression of various proteins in the extrinsic and intrinsic pathway of apoptosis on treatment with NIIST-AC-1 was analyzed by using antibody pair-based assay, where the 43 targets were captured on a membrane. Lysates of control and treated cells were spotted to the membrane as protein equivalents. Paired biotinylated detector antibodies and streptavidin HRP were used for development using chemiluminescent method. Comparison of the membrane were done using densitometry software.

A further data set relates to EGFR. The experiment in a line: EGFR expression studies (immunofluorescence). In kind it is cell-based, human. The conditions noted are these: fluorescent images. The protocol: The expression of EGFR after treatment with NIIST-AC-1 was evaluated using indirect immunofluorescence. The cells after treatment were fixed with paraformaldehyde and incubated with primary antibody overnight. After washing the primary antibody, the cells were treated with alexa fluor conjugated secondary antibody for visualization. The cells were counterstained with DAPI for nuclear staining and were observed under a fluorescent microscope (IX83 inverted microscope; Olympus Life Science, cell Sens Dimension ver 3.1 software).

Data set [3] relates to MDA MB 231 cells. The experiment in a line: Cytotoxicity studies by MTT assay. In kind it is cell-based. The conditions noted are these: Homo sapiens, 24 hrs, read-out: GI50 (50% growth inhibition value). The protocol:
as §1
A 10 mM stock solution of I-8 was prepared in DMSO and diluted with DMEM supplemented with 5% FBS for each experiment so that the DMSO concentration was <0.1% in the treated cells. Paclitaxel at a concentration of 50 nM was used as the positive control.
MTT assay was used for testing the cytotoxicity of NIIST-AC-1 in MDA MB 231 cells. 1×10^4 cells/well were seeded in 96 well culture plates and were treated with different concentrations of NIIST-AC-1 for 24 hrs. The percentage of viable cells were monitored based on the purple colour developed by MTT at 570 nm and from that the concentration of NIIST-AC-1 required for 50% inhibition of the viability was calculated as the GI50 value.
(Tetrazolium assays rely on reduction of a dye to a coloured formazan, in cell work by metabolically active cells.)

Data set [4] has as its system histone deacetylase 1 (HDAC-1). The experiment in a line: HDAC inhibition assay (colorimetric, cell lysates). In kind it is biochemical, human. Conditions: enzyme assay, MDA MB 231 cell lysates. How it is done: The histone deacetylase inhibitory activity was measured in the cell lysates using the colorimetric assay kit where we have used the substrate Ac-Lys (Ac)-pNA and trichostatin A as the positive control. After the reaction, the absorbance was measured at 400 nm and the percentage inhibition was calculated by comparing with the deacetylated standard Ac-Lys-pNA.

For data set [5], the system named is MDA MB 231 cells. Description: Cell cycle analysis (PI flow cytometry, western blot). In kind it is cell-based, human. How it is done:
The distribution of cells in different phases of cell cycle was determined by flow cytometry after staining with propidium iodide. After treatment, the cells were harvested, ethanol fixed and stained with propidium iodide at 25° C. for 30 minutes. The cellular DNA content was measured with BD FACS Fortessa X-20 SORP according to detected signals in FL2 channel (excitation, 493 nm; emission, 636 nm) and data were analyzed with FloJo software, version 9. Approximately 10,000 cells were counted for each analysis, and the distribution of cells in each phase of the cell cycle was saved as histograms. Western blot analysis was done to study the expression profiles of various proteins involved in the cell cycle machinery.

The test system of data set [6] is MDA MB 231 cells. The experiment in a line: Glucose uptake study (2-NBDG, FACS). In kind it is cell-based, human. The protocol:
The effect of NIIST-AC-1 on the uptake of glucose was analyzed by flow cytometry using 2-NBDG. After incubation of the cells with different concentrations of NIIST-AC-1, the cell culture medium was replaced with medium containing fluorescent 2-NBDG and incubated for 30 minutes. Then the samples were analyzed using BD FACSAria II (BD Biosciences) at FITC range (excitation, 465 nm; emission 540-nm bandpass filter). The mean fluorescence intensities of different groups were analyzed by BD FACSDiva ver 6.1.3 software and corrected for autofluorescence from unlabeled cells.

Data set [7] has as its system MDA MB 231 cells. Description: Growth inhibitory study of I-8 in combination with paclitaxel. In kind it is cell-based, human. Conditions: 5 μM I-8 in combination with paclitaxel.
Data set [8] relates to MDA MB 231 cells. The experiment in a line: Measurement of intracellular reactive oxygen species (FACS). In kind it is cell-based, human. The conditions noted are these: MDA MB 231, CM-H2DCFDA. The protocol:
The upregulation of ROS upon treatment with NIIST-AC-1 was analyzed using the fluorescent probe CM-H2DCFDA (Sigma). After treatment, the cells were incubated DMEM containing CM-H2DCFDA at a final concentration of 5 μM at 37° C. for 30 min. The trypsinised cells were then suspended in PBA and analyzed using FACS (BD FACSAria II (BD Biosciences) at fluorescein isothiocyanate (FITC) range (excitation 495 nm, emission 529 nm bandpass filter). The mean fluorescence intensities of different groups were analyzed by BD FACSDiva ver 6.1.3 software and corrected for autofluorescence from unlabeled cells.

The structures appear in SMILES notation. Entries after “also recorded” stand apart in the source; their conditions may differ.

One may read the GI50 as the concentration giving 50% growth inhibition. Consider `COc1cc(-c2cc(C(=O)NCc3cc(C(F)(F)F)cc(C(F)(F)F)c3)[nH]n2)cc(OC)c1OC` [I-8, N-(3,5-bis(trifluoromethyl)benzyl)-3-(3,4,5-trimethoxyphenyl)-1H-pyrazole-5-carboxamide], for which the “cytotoxicity in normal fibroblasts” value in data set [1] is given as “without having cytotoxicity; also recorded: no toxic”. Also, the “caspase 9 activity” value with caspase-9 was “upregulated caspase activity”. The MMP-9 activity result with MMP-9 is “reduced”. Further, the “expression of apoptotic proteins (intrinsic and extrinsic pathways)” value in data set [2] is “upregulated the proteins involved in intrinsic and extrinsic pathways”. The EGFR expression result with EGFR is given as “reduction in EGFR expression”. In addition, in the data set with MDA MB 231 cells [3], the GI50 was 15.1 µM. Besides, the HDAC inhibitory activity result in [4] is “significant inhibition; also recorded: substantial histone deacetylase 1 (HDAC-1) inhibitory activity”. Further, the cell cycle arrest result in the data set with MDA MB 231 cells [5] (MDA MB 231, PI labelling, FACS) is recorded as “cell cycle arrest at S phase”. In addition, the “cell cycle regulatory proteins cyclin B1, cyclin A2 and CDK” value in the data set on MDA MB 231 cells [5] (western blot) is recorded as “downregulated”. The glucose uptake result in the data set on MDA MB 231 cells [6] was “significant reduction in the uptake of glucose”. In addition, in the data set on MDA MB 231 cells [7], the “lowering of paclitaxel concentration required for 50% growth inhibition” value amounted to 10 times. The ROS generation entry in the data set with MDA MB 231 cells [8] is “significant generation of ROS”.
